Patent publication US12077503B2, “Substituted cyclic amides and their use as herbicides” (FMC CORPORATION, priority 2015, dated 2024)

Experiments:
Type in all cases: in vivo
[1] = tested on: ducksalad (Heteranthera limosa); experiment: Test B flooded paddy test; conditions: Flood, 250 g ai/ha; for Ducksalad plant response rating: 0 to 100 scale where 0 is no effect and 100 is complete control
Procedure, shortened: (§1)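 Evaluation by eye, against controls, occurred 13–15 d post-treatment in a greenhouse, using a 0 (no effect) to 100 (complete control) scale. Application was into the paddy water, 3 cm deep over the soil, on 2-leaf plants.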

[2] = tested on: barnyardgrass (Echinochloa crus-galli); experiment: Test B flooded paddy test; conditions: Flood, 250 g ai/ha; for Barnyardgrass plant response rating: 0 to 100 scale where 0 is no effect and 100 is complete control
Procedure, shortened: as §1

rice (Oryra sativa) = experiment: Test B flooded paddy test; conditions: Flood, 250 g ai/ha; for Rice plant response rating: 0 to 100 scale where 0 is no effect and 100 is complete control
Procedure, shortened: as §1

[3] = tested on: sedge, umbrella (small-flower umbrella sedge, Cyperus difformis); experiment: Test B flooded paddy test; conditions: Flood, 250 g ai/ha; for Sedge, Umbrella plant response rating: 0 to 100 scale where 0 is no effect and 100 is complete control
Procedure, shortened: as §1

[4] = tested on: pigweed (Amaranthus retroflexus); experiment: Test A preemergence
[5] = tested on: barnyardgrass (Echinochloa crus-galli); experiment: Test A preemergence
Procedure, shortened: (§2)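 Compounds were formulated in a non-phytotoxic solvent mixture with surfactant and applied as a preemergence directed soil spray after seeding, or sprayed postemergence over plants 2 to 10 cm tall at the one- to two-leaf stage. Evaluation after about 10 d compared treated with untreated controls, using a scale from 0 (no effect) to 100 (complete control).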

[6] = tested on: ryegrass, Italian (Italian ryegrass, Lolium multiflorum); experiment: Test A preemergence
Procedure, shortened: as §2

[7] = tested on: giant foxtail (Setaria faberii); experiment: Test A preemergence
Procedure, shortened: as §2

Kochia (Kochia scoparia) [8] = experiment: Test A preemergence
Procedure, shortened: as §2

[9] = tested on: ragweed (common ragweed, Ambrosia elatior); experiment: Test A preemergence
Procedure, shortened: as §2

[10] = tested on: pigweed (Amaranthus retroflexus); experiment: Test A postemergence
Procedure, shortened: as §2

[11] = tested on: barnyardgrass (Echinochloa crus-galli); experiment: Test A postemergence
Procedure, shortened: as §2

[12] = tested on: Galium (catchweed bedstraw, Galium aparine); experiment: Test A postemergence
Procedure, shortened: as §2

[13] = tested on: ryegrass, Italian (Italian ryegrass, Lolium multiflorum); experiment: Test A postemergence
Procedure, shortened: as §2

[14] = tested on: wheat (Triticum aestivum); experiment: Test A postemergence
Procedure, shortened: as §2

[15] = tested on: blackgrass (Alopecurus myosuroides); experiment: Test A postemergence
Procedure, shortened: as §2

[16] = tested on: giant foxtail (Setaria faberii); experiment: Test A postemergence
Procedure, shortened: as §2

Kochia (Kochia scoparia) [17] = experiment: Test A postemergence
Procedure, shortened: as §2

corn (Zea mays) = experiment: Test A postemergence
Procedure, shortened: as §2

[18] = tested on: ragweed (common ragweed, Ambrosia elatior); experiment: Test A postemergence
Procedure, shortened: as §2

[19] = 125 g ai/ha, Preemergence, visual injury rating after approximately 10 d
[20] = 500 g ai/ha, preemergence, visual injury rating about 10 d after treatment, 0 to 100 scale (0 no effect, 100 complete control)
[21] = 125 g ai/ha, Postemergence, visual injury after approximately 10 d, 0 to 100 scale where 0 is no effect and 100 is complete control
[22] = 500 g ai/ha, postemergence, visual injury, 0 to 100 scale (0 no effect, 100 complete control), approx. 10 d
[23] = 31 g ai/ha, Preemergence, 0 to 100 scale where 0 is no effect and 100 is complete control
[24] = 125 g ai/ha, preemergence, 0 to 100 scale where 0 is no effect and 100 is complete control, approx. 10 d
[25] = 125 g ai/ha, postemergence, visual injury vs untreated controls after approx. 10 d, 0 = no effect, 100 = complete control
[26] = Postemergence, 31 g ai/ha, visual injury after approx. 10 d, 0 to 100 scale, 0 no effect, 100 complete control

CN1C[C@H](c2cccc(OC(F)(F)C(F)F)c2)[C@@H](C(=O)Nc2ccccc2[S+](C)[O-])C1=O (some centres unmarked) [Compound 863]
40%: pest or weed control at 125 g/ha (Kochia (Kochia scoparia) [17]; Bassia scoparia, post-emergence, 240 h, 125 g ai/ha, postemergence, visual injury rating after approximately 10 d, read-out: Kochia plant response rating (0 to 100 scale, 0 no effect, 100 complete control))
30%: pest or weed control at 125 g/ha ([12]; Galium, post-emergence, 240 h, 125 g ai/ha, postemergence, visual injury rating after approximately 10 d, read-out: Galium plant response rating (0 to 100 scale, 0 no effect, 100 complete control)) | plant injury at 125 g/ha (corn (Zea mays); Zea mays, post-emergence, 240 h, 125 g ai/ha, postemergence, visual injury rating after approximately 10 d, read-out: Corn plant response rating (0 to 100 scale, 0 no effect, 100 complete control))
70%: pest or weed control at 125 g/ha ([4]; Amaranthus retroflexus, pre-emergence, 240 h, 125 g ai/ha, preemergence, 0 to 100 scale where 0 is no effect and 100 is complete control, read-out: Pigweed plant response rating) | pest or weed control at 125 g/ha ([11]; Echinochloa crus-galli, post-emergence, 240 h, 125 g ai/ha, postemergence, visual injury rating after approximately 10 d, read-out: Barnyardgrass plant response rating (0 to 100 scale, 0 no effect, 100 complete control))
0%: pest or weed control at 250 g/ha ([1]; Heteranthera limosa, scale of 0 to 100 where 0 is no effect and 100 is complete control, read-out: Ducksalad plant response rating) | pest or weed control at 250 g/ha ([2]; Echinochloa crus-galli, scale of 0 to 100 where 0 is no effect and 100 is complete control, read-out: Barnyardgrass plant response rating) | pest or weed control at 250 g/ha (rice (Oryra sativa); Oryza sativa, scale of 0 to 100 where 0 is no effect and 100 is complete control, read-out: Rice plant response rating) | pest or weed control at 250 g/ha ([3]; Cyperus difformis, scale of 0 to 100 where 0 is no effect and 100 is complete control, read-out: Sedge, Umbrella plant response rating) | pest or weed control at 125 g/ha ([6]; Lolium multiflorum, pre-emergence, 240 h, 125 g ai/ha, preemergence, 0 to 100 scale where 0 is no effect and 100 is complete control, read-out: Ryegrass, Italian plant response rating) | pest or weed control at 125 g/ha ([9]; Ambrosia artemisiifolia, pre-emergence, 240 h, 125 g ai/ha, preemergence, 0 to 100 scale where 0 is no effect and 100 is complete control, read-out: Ragweed plant response rating) | pest or weed control at 125 g/ha ([13]; Lolium multiflorum, post-emergence, 240 h, 125 g ai/ha, postemergence, visual injury rating after approximately 10 d, read-out: Ryegrass, Italian plant response rating (0 to 100 scale, 0 no effect, 100 complete control)) | plant injury at 125 g/ha ([14]; Triticum aestivum, post-emergence, 240 h, 125 g ai/ha, postemergence, visual injury rating after approximately 10 d, read-out: Wheat plant response rating (0 to 100 scale, 0 no effect, 100 complete control)) | pest or weed control at 125 g/ha ([15]; Alopecurus myosuroides, post-emergence, 240 h, 125 g ai/ha, postemergence, visual injury rating after approximately 10 d, read-out: Blackgrass plant response rating (0 to 100 scale, 0 no effect, 100 complete control)) | pest or weed control at 125 g/ha ([18]; Ambrosia artemisiifolia, post-emergence, 240 h, 125 g ai/ha, postemergence, visual injury rating after approximately 10 d, read-out: Ragweed plant response rating (0 to 100 scale, 0 no effect, 100 complete control))
80%: pest or weed control at 125 g/ha (Kochia (Kochia scoparia) [8]; Bassia scoparia, pre-emergence, 240 h, 125 g ai/ha, preemergence, 0 to 100 scale where 0 is no effect and 100 is complete control, read-out: Kochia plant response rating)
50%: pest or weed control at 125 g/ha ([5]; Echinochloa crus-galli, pre-emergence, 240 h, 125 g ai/ha, preemergence, 0 to 100 scale where 0 is no effect and 100 is complete control, read-out: Barnyardgrass plant response rating) | pest or weed control at 125 g/ha ([10]; Amaranthus retroflexus, post-emergence, 240 h, 125 g ai/ha, postemergence, visual injury rating after approximately 10 d, read-out: Pigweed plant response rating (0 to 100 scale, 0 no effect, 100 complete control))
20%: pest or weed control at 125 g/ha ([16]; Setaria faberi, post-emergence, 240 h, 125 g ai/ha, postemergence, visual injury rating after approximately 10 d, read-out: Foxtail, Giant plant response rating (0 to 100 scale, 0 no effect, 100 complete control))
90%: pest or weed control at 125 g/ha ([7]; Setaria faberi, pre-emergence, 240 h, 125 g ai/ha, preemergence, 0 to 100 scale where 0 is no effect and 100 is complete control, read-out: Foxtail, Giant plant response rating)

Cc1ccc([C@H]2CN(C)C(=O)[C@@H]2C(=O)Nc2ccccc2[S+](C)[O-])cc1Cl (some centres unmarked) [Compound 1017]
80: Plant response rating, Corn (corn (Zea mays); [21])
40: Plant response rating, Pigweed [10, 22] | Plant response rating, Galium [12, 21] | Plant response rating, Blackgrass [15, 22] | Plant response rating, Kochia (Kochia (Kochia scoparia) [17]; [21]) | Plant response rating, Ragweed [18, 22]
90: Ducksalad plant response rating [1] | Barnyardgrass plant response rating (0 to 100 scale, 0 is no effect, 100 is complete control) [5, 19] | Barnyardgrass plant response rating [5, 20] | Foxtail, Giant plant response rating (0 to 100 scale, 0 is no effect, 100 is complete control) [7, 19] | Foxtail, Giant plant response rating [7, 20] | Ragweed plant response rating [9, 20] | Plant response rating, Barnyardgrass [11, 21] | Plant response rating, Barnyardgrass [11, 22] | Plant response rating, Foxtail, Giant [16, 21] | Plant response rating, Foxtail, Giant [16, 22] | Plant response rating, Corn (corn (Zea mays); [22])
70: Barnyardgrass plant response rating [2] | Ryegrass, Italian plant response rating [6, 20] | Kochia plant response rating (Kochia (Kochia scoparia) [8]; [20]) | Plant response rating, Galium [12, 22]
30: Rice plant response rating (rice (Oryra sativa)) | Plant response rating, Ryegrass, Italian [13, 21]
50: Pigweed plant response rating (0 to 100 scale, 0 is no effect, 100 is complete control) [4, 19] | Plant response rating, Ryegrass, Italian [13, 22]
60: Pigweed plant response rating [4, 20] | Plant response rating, Wheat [14, 22] | Plant response rating, Kochia (Kochia (Kochia scoparia) [17]; [22])
0: Sedge, Umbrella plant response rating [3] | Ryegrass, Italian plant response rating (0 to 100 scale, 0 is no effect, 100 is complete control) [6, 19] | Kochia plant response rating (0 to 100 scale, 0 is no effect, 100 is complete control) (Kochia (Kochia scoparia) [8]; [19]) | Ragweed plant response rating (0 to 100 scale, 0 is no effect, 100 is complete control) [9, 19] | Plant response rating, Pigweed [10, 21] | Plant response rating, Blackgrass [15, 21] | Plant response rating, Ragweed [18, 21]
20: Plant response rating, Wheat [14, 21]

CN1C[C@@H](c2ccc([N+](=O)[O-])cc2)[C@H](C(=O)Nc2cccc(F)c2F)C1=O [Compound 1165]
10: Plant response rating, Pigweed [10, 26]
45: Rice plant response rating (rice (Oryra sativa))
90: Ducksalad plant response rating [1] | Barnyardgrass plant response rating [5, 24] | Foxtail, Giant plant response rating [7, 24]
70: Barnyardgrass plant response rating [5, 23] | Foxtail, Giant plant response rating [7, 23] | Kochia plant response rating (Kochia (Kochia scoparia) [8]; [24]) | Foxtail, Giant plant response rating (0 to 100 scale) [16, 25] | Plant response rating, Foxtail, Giant [16, 26]
40: Pigweed plant response rating [4, 23] | Plant response rating, Barnyardgrass [11, 26]
50: Pigweed plant response rating [4, 24]
30: Ragweed plant response rating [9, 24] | Pigweed plant response rating (0 to 100 scale) [10, 25] | Wheat plant response rating (0 to 100 scale) [14, 25] | Kochia plant response rating (0 to 100 scale) (Kochia (Kochia scoparia) [17]; [25]) | Plant response rating, Kochia (Kochia (Kochia scoparia) [17]; [26]) | Corn plant response rating (0 to 100 scale) (corn (Zea mays); [25])
80: Barnyardgrass plant response rating (0 to 100 scale) [11, 25]
60: Galium plant response rating (0 to 100 scale) [12, 25]
20: Plant response rating, Galium [12, 26] | Ryegrass, Italian plant response rating (0 to 100 scale) [13, 25]
0: Sedge, Umbrella plant response rating [3] | Ryegrass, Italian plant response rating [6, 23] | Ryegrass, Italian plant response rating [6, 24] | Kochia plant response rating (Kochia (Kochia scoparia) [8]; [23]) | Ragweed plant response rating [9, 23] | Plant response rating, Ryegrass, Italian [13, 26] | Plant response rating, Wheat [14, 26] | Blackgrass plant response rating (0 to 100 scale) [15, 25] | Plant response rating, Blackgrass [15, 26] | Plant response rating, Corn (corn (Zea mays); [26]) | Ragweed plant response rating (0 to 100 scale) [18, 25] | Plant response rating, Ragweed [18, 26]
95: Barnyardgrass plant response rating [2]
